Assay [1] concerns the target T1, human XIAP protein (residues 120-356) (Homo sapiens, UniProt P98170).
T1 construct: human XIAP protein (residues 120-356) (10 nM)
Description: Fluorescence-polarization-based binding assay to XIAP protein (Smac2-F tracer). The note with it: read-out: Binding to XIAP IC50 values. On the procedure: The polarization values were measured after 2 hours incubation, using the Ultra plate reader. […] Curve fitting is performed using GraphPad Prism® software.

Assay [2] has as its system MDA-MB-231 human breast cancer cell line. Nature of the assay: Cell growth inhibition, WST-8 assay, MDA-MB-231. Type of assay: cell-based. The note with it: MDA-MB-231, read-out: IC50 values (nM) In WST-assay (MDA-MB-231). On the procedure: The rate of cell growth inhibition after treatment with different concentrations of the compound was determined using a WST-8 kit (2-(2-methoxy-4-nitrophenyl)-3-(4-nitrophenyl)-5-(2, 4 disulfophenyl)-2H-tetrazolium monosodium salt; Dojindo Molecular Technologies, Inc., Gaithersburg, Md.). WST-8 was added at a final concentration of 10% to each well, and then the plates were incubated at 37° C. for 2-3 hrs. The absorbance of the samples was measured at 450 nm using a ULTRA Tecan Reader (Molecular Device).
A general note: Tetrazolium dyes change colour on reduction, which living cells bring about.

T1 sequence (P98170 120-356): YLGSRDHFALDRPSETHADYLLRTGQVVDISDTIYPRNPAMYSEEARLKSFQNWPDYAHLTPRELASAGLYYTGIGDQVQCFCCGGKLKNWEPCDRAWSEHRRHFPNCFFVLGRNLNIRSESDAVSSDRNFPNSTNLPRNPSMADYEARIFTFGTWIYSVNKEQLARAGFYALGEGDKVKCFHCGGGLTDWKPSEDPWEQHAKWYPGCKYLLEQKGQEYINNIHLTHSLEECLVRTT

The IC50 is the concentration that inhibits the measured activity by half. For the compound `CN[C@@H](C)C(=O)N[C@H]1CC[C@H](n2cc(COCc3cn([C@H]4CC[C@H](NC(=O)[C@H](C)NC)C(=O)N5[C@H](CC[C@H]5C(=O)N[C@@H]5CCCc6ccccc65)C4)nn3)nn2)C[C@H]2CC[C@@H](C(=O)N[C@@H]3CCCc4ccccc43)N2C1=O` (stereo in doubt) [SH-172], the IC50 is under 10 nM in assay [1] and under 1000 nM in assay [2].

As to `CN[C@@H](C)C(=O)N[C@H]1CCCC[C@H]2CC[C@@H](C(=O)N[C@H](COCCn3cc(COC[C@@H](NC(=O)[C@@H]4CC[C@@H]5CCCC[C@H](NC(=O)[C@H](C)NC)C(=O)N54)c4ccccc4)nn3)c3ccccc3)N2C1=O` [SH-143], in assay [1], the IC50 is under 50 nM.

For the compound `CN[C@@H](C)C(=O)N[C@H]1CCCC[C@H]2CC[C@@H](C(=O)N[C@H](COCc3cn([C@@H]4CC[C@H](NC(=O)[C@H](C)NC)C(=O)N5[C@H](CC[C@H]5C(=O)N[C@@H]5CCCc6ccccc65)C4)nn3)c3ccccc3)N2C1=O` [SH-146], the IC50 in assay [1] is under 50 nM.

Turning to `CN[C@@H](C)C(=O)N[C@H]1CC[C@@H](n2cc(COCc3cn([C@@H]4CC[C@H](NC(=O)[C@H](C)NC)C(=O)N5[C@H](CC[C@H]5C(=O)N[C@H]5CCCc6ccccc65)C4)nn3)nn2)C[C@H]2CC[C@@H](C(=O)NC3CCCc4ccccc43)N2C1=O` (stereo partly shown) [SH-153], the IC50 is under 10 nM in assay [1] and under 1000 nM in assay [2].

Regarding `CN[C@@H](C)C(=O)N[C@H]1CC[C@H](n2cc(COCc3cn([C@H]4CC[C@H](NC(=O)[C@H](C)NC)C(=O)N5[C@H](CC[C@H]5C(=O)NC(c5ccccc5)c5ccccc5)C4)nn3)nn2)C[C@H]2CC[C@@H](C(=O)NC(c3ccccc3)c3ccccc3)N2C1=O` [SH-176], the IC50 in assay [1] is under 10 nM; in assay [2], under 100 nM.

With `CN[C@@H](C)C(=O)N[C@H]1CC[C@@H](n2cc(COCc3cn([C@@H]4CC[C@H](NC(=O)[C@H](C)NC)C(=O)N5[C@H](CC[C@H]5C(=O)NC(c5ccccc5)c5ccccc5)C4)nn3)nn2)C[C@H]2CC[C@@H](C(=O)NC(c3ccccc3)c3ccccc3)N2C1=O` [SH-177], the IC50 was under 10 nM in assay [1] and under 100 nM in assay [2].

Take `CN[C@@H](C)C(=O)N[C@H]1CCCC[C@H]2CC[C@@H](C(=O)N[C@@H](c3ccccc3)c3cn(CCN4CCN(CCn5cc([C@@H](NC(=O)[C@@H]6CC[C@@H]7CCCC[C@H](NC(=O)[C@H](C)NC)C(=O)N76)c6ccccc6)nn5)CC4)nn3)N2C1=O` [SH-178]: the half-inhibitory concentration (IC50) is under 100 nM in assay [1] and under 10000 nM in assay [2].

`C[C@H](NCCO)C(=O)N[C@H]1CCCC[C@H]2CC[C@@H](C(=O)N[C@@H](c3ccccc3)c3cn(CCN4CCN(CCn5cc([C@@H](NC(=O)[C@@H]6CC[C@@H]7CCCC[C@H](NC(=O)[C@H](C)NCCO)C(=O)N76)c6ccccc6)nn5)CC4)nn3)N2C1=O` [SH-179]: the IC50 in assay [1] is under 100 nM; in assay [2], under 10000 nM.

Consider `CN[C@@H](C)C(=O)N[C@H]1CCCC[C@H]2CC[C@@H](C(=O)N[C@@H](c3ccc(F)cc3)c3cn(CCN4CCN(CCn5cc([C@@H](NC(=O)[C@@H]6CC[C@@H]7CCCC[C@H](NC(=O)[C@H](C)NC)C(=O)N76)c6ccc(F)cc6)nn5)CC4)nn3)N2C1=O` [SH-181], for which the concentration for half-maximal inhibition (IC50) in assay [1] is under 100 nM; in assay [2] it was under 10000 nM.

Regarding `C[C@H](NCCO)C(=O)N[C@H]1CCCC[C@H]2CC[C@@H](C(=O)N[C@@H](c3ccc(F)cc3)c3cn(CCN4CCN(CCn5cc([C@@H](NC(=O)[C@@H]6CC[C@@H]7CCCC[C@H](NC(=O)[C@H](C)NCCO)C(=O)N76)c6ccc(F)cc6)nn5)CC4)nn3)N2C1=O` [SH-183], the IC50 was under 100 nM in assay [1] and under 10000 nM in assay [2].

Regarding `CNC(Cc1c[nH]c2ccccc12)C(=O)NC1CCCCC2CCC(C(=O)NC(c3ccccc3)c3cn(CCCCc4ccc(CCCCn5cc(C(NC(=O)C6CCC7CCCCC(NC(=O)C(Cc8c[nH]c9ccccc89)NC)C(=O)N76)c6ccccc6)nn5)cc4)nn3)N2C1=O` (stereo not shown) [SH-187], the IC50 in assay [1] was over 10000 nM.

The values above are taken from patent US8202902B2, “Bivalent SMAC mimetics and the uses thereof” (The Regents of the University of Michigan, priority 2006, dated 2012).
